# Read-outs that look alike come from different tables or passages of the source.
# Legend:
# [1] = for Kcub/w / log Kcub/w: fully swollen Pn3m cubic phase (GMO/water) vs water; for bilayer/water partitioning, Kcub/w / bilayer/water partitioning, log Kcub/w: fully swollen Pn3m cubic phase (GMO/water), calculated; for partitioning into the cubic lipid bilayer compared to kynurenine: fully swollen GMO cubic phase
# Protocol: Four concentrations of Trp and Kyn in a range 0.125 mM to 1 mM, corresponding to lipid:Trp(Kyn) ratio in the range 7200:1-900:1, were prepared in Milli-Q water in order to investigate the effect of concertation on the partitioning. The fully swollen cubic phases (˜0.25 g) were prepared by mixing the appropriate amount of GMO with an excess of Milli-Q water (1:1 weight ratio) in a 1.7 mL glass vials and left to equilibrate for 7 days. When samples were equilibrated (typically within 2 days a glass-clear and non-floating cubic phase was formed), each vial was checked between cross polarizers to ensure that no birefringence could be observed. The excess of water was then removed and 500 μL of solution with different concentrations of Trp/Kyn (molar ratio 1:1) were added to each vial. Final samples were allowed to equilibrate with respect to Trp and Kyn partitioning between the lipid bilayer and the aqueous phase. First sampling was performed after one week of equilibration by withdrawing 50 μL of the aqueous phase. Second sampling was performed in identical manner after 2 weeks of equilibration to investigate the time aspect on the partitioning. All samples collected during the partition study were diluted to a final volume 500 μL with Milli-Q water and filtered with a 0.2 μm syringe filters (13 mm PTFE membrane, VWR International, USA) prior to the HPLC-UV analysis. All partition experiments were performed in triplicates.
# The lipid bilayer/water partition coefficient, Kbl/w, may be defined as
# where [X] is the concentration of an endogenous substance of interest (e.g., Trp and Kyn) in the bilayer and in water. While concertation of a substance in the aqueous phase can easily be determined by a suitable analytical procedure (e.g., HPLC, LC-MS etc.), determination of the concertation in the bilayer requires two assumptions. […] The second assumption is that the concentration of an endogenous substance in the water channels of the cubic phase is the same as in the water bulk phase, which is based on the equilibrium between chemical potentials of endogenous substances in water channels and in the bulk phase. Thus, the partition coefficient may be calculated by rewriting the Eq. 2 as follows
# where Vw is the volume of a water solution containing endogenous substance X added to the cubic phase, [X]0w is the initial concentration of an endogenous substance, [X]w is the concentration of endogenous substance in the water phase after equilibration, Vbl is the volume of GMO, Vcube is the volume of water that was added to GMO to form a cubic phase.
# The quantification of Trp and Kyn was performed by HPLC-UV system (Agilent 1100 Series, Germany). The chromatographic separation of Trp and Kyn was carried out on 250 mm×4.6 mm Kromasil C18 column with particle size of 5 μm (AkzoNobel, Bellefonte, USA). Endogenous substances were separated by gradient elution using mobile phase A consisting of 10 mM NaH2PO4 (pH 2.8) and mobile phase B consisting of 100% MeOH at 0.9 mL/min flow rate and 40° C. column temperature. […] The total run time was 17 minutes and injection volume was set to 20 μL. Detection of Trp and Kyn was performed at their UV absorbance maxima, at 280 nm and 360 nm, respectively. Stock solutions of 10 mM of Trp and Kyn for calibration curve were prepared in Milli-Q water and kept in the freezer (−20° C.) for no longer than one day after preparation. Calibration standards for calibration curve were analyzed in the range 0.78 μM to 100 μM (R^2>0.999) the same day as the experimental samples.
# [2] = Reverse iontophoretic extraction into GMO cubic phase receptor matrix; assay type: in vitro ADME, pig; details: for Cumulative amount Cubic at anode / Cumulative amount Cubic at cathode: in the cubic phase, 6 h, HEPES pH 7.4; for Cumulative amount Total at anode / Cumulative amount Total at cathode: sum of receptor solution after 6 hours and cubic phase
# Protocol: Another objective of the present intention was to investigate the potency of a liquid crystalline cubic phase formed by GMO and water to serve as a matrix for iontophoresis. In order to keep experimental conditions as similar as possible to the previously described experiments, the same horizontal side-by-side cells were used. A fully swollen cubic phase (Pn3m space group) was added into a custom-made sample holder ensuring the formulation was in contact with the skin. In order to prevent contact between the cubic phase and the electrodes, 2 mL of HEPES buffer (pH 7.4, 60 mM NaCl) was added to each receptor compartment. Sampling was performed by withdrawing 1 ml of receptor solution and replacing it with a 1 mL of empty buffer every hour for 6 hours. After the last sampling, the experiment was terminated, and the cubic phase was collected for further analysis. […] It is important to point out that partitioning of Trp and Kyn into cubic bilayer was not taken into account during the calculation of the extracted amounts of respective endogenous substance. The amounts were determined based on the volume of the receptor matrix (100 μL).
# The samples for reverse iontophoretic extraction experiments consisting of a liquid crystalline cubic phase were prepared by weighing 0.1 g of glycerol monooleate (GMO) in a 1.8 mL glass vials. GMO was then melted at 45° C. by immersing the vials in the water bath and centrifuged at 1000 g for 5 minutes. The vials were then placed in the freezer (−20° C.) for 30 minutes in order for GMO to crystalize. After crystallization vials were taken out of the freezer and 0.5 g of Milli-Q water was added to each vial, ensuring the excess of added water. […] Prior to use, each vial was examined between cross polarizers for any sign of anisotropy, which would imply that sample had not yet reached equilibrium. […]
# [3] = Passive diffusion extraction of Trp and Kyn; assay type: in vitro ADME, pig; details: for Normalized cumulative amount Passive / Cumulative amount Passive / Flux Passive: mean ± SEM
# Protocol: Pig skin, purchased from a local abattoir, was gently cleaned post-sacrifice under cold running water. The skin from abdomen or from the inside of the outer ear was used as in vitro skin model. […] Skin samples were then wrapped individually in Parafilm™ and kept at −20° C. for not more than three months until use. Prior to extraction experiments, skin was cut into 4 cm^2 membranes while still being frozen. Prepared skin membranes were then left at ambient environment for 30 minutes to thaw and obtain room temperature. The integrity of each skin membrane was visually inspected against the light in order to ensure that there were no visible damages (holes). Hairs were then further trimmed with scissors and skin was gently rinsed under cold running water.
# In order to determine if reverse iontophoresis can enhance the extraction of Trp compared to their passive diffusion extraction, similar experiments were conducted without the current passage. These passive diffusion experiments were conducted using the same horizontal side-by-side cell setup in parallel to reverse iontophoresis experiments in order to ensure identical conditions. In line with reverse iontophoretic experiment, after the 6-hour sampling, subdermal compartment was emptied and experiment was allowed to continue for another 18 hours. Passive diffusion experiments were repeated four times (n=4).
# Prior to HPLC-UV analysis, samples were thawed and vortexed.
# Anodal, cathodal and passive fluxes of Trp and Kyn were directly calculated from the amount (mol) extracted at each sampling interval and normalized for the surface area available for extraction (0.785 cm^2) and duration of the interval (in hours). The 6-hour flux values were used for the analysis of transport direction as well for comparison between reverse iontophoretic and passive extraction efficiency. The physiochemical properties of both endogenous substances were estimated. In order to compare results, the enhancement ratio (ER) was determined after 6 hours as […]
# [4] = assay type: in vitro ADME, pig
# Protocol: Therefore, identical reverse iontophoretic extraction experiments were performed with an empty donor solution (i.e., neat PBS buffer pH 7.4) and the results are shown in FIG. 14. As in the previous section, Trp was extracted towards both receptor compartments, however, the main direction of extraction was towards the cathode. […] This is most likely due to the fact that the amount of extracted Kyn was below the limit of detection by means of HPLC-UV. Therefore, a more sensitive analysis technique is required for quantification of endogenously present Kyn. The cumulative amount of extracted Trp to the cathode was 0.44±0.06 nmol/cm^2 and the anode 0.22±0.05 nmol/cm^2.
# Control reverse iontophoretic extraction experiments were conducted in order to estimate the levels of endogenous Trp and, potentially Kyn. It is known that Trp is present in the SC as a part of natural moisturizing factor (NMF), which primarily consists of free amino acids and their derivatives55,56. These experiments were performed using the identical experimental setup with a neat PBS buffer (pH 7.4) in the donor compartment (i.e., no Trp or Kyn being present) and 10 mM HEPES with 60 mM NaCl as background electrolyte (pH 7.4). Sampling was performed once an hour for 6 hours by withdrawing 1 mL of receptor solution and replacing it with a 1 mL of fresh HEPES buffer).
# [5] = pH 4.0, 24 h amount minus first 6 hours
# [6] = pH 7.4, 24 h amount minus first 6 hours
# [7] = pH 9.0, 24 h amount minus first 6 hours
# [8] = receptor pH 4.0, donor pH 7.4, after 6 h
# [9] = receptor pH 7.4, donor pH 7.4, after 6 h
# [10] = receptor pH 9.0, donor pH 7.4, after 6 h
SMILES,Kcub/w [1],log Kcub/w [1],"bilayer/water partitioning, Kcub/w [1]","bilayer/water partitioning, log Kcub/w [1]",Cumulative amount Cubic at anode [2],Cumulative amount Cubic at cathode [2],Cumulative amount Total at anode [2],Cumulative amount Total at cathode [2],"Normalized cumulative amount Passive [3, 5]","Normalized cumulative amount Passive [3, 6]","Normalized cumulative amount Passive [3, 7]","Cumulative amount Passive [3, 8]","Cumulative amount Passive [3, 9]","Cumulative amount Passive [3, 10]",further results
"Nc1ccccc1C(=O)C[C@H](N)C(=O)O [Kyn, L-kynurenine]",1.3,0.1,1.5,0.2,0.28 ± 0.28 nmol/cm^2,5.62 ± 0.45 nmol/cm^2,0.28 ± 0.28 nmol/cm^2,7.53 ± 0.83 nmol/cm^2,0.27 ± 0.27 nmol/cm^2,2.59 ± 1.50 nmol/cm^2,3.81 ± 0.93 nmol/cm^2,<LOQ,<LOQ,<LOQ,detection of endogenous Kyn [4]: no Kyn was detected
"N[C@@H](Cc1c[nH]c2ccccc12)C(=O)O [Trp, L-tryptophan]",2.2,0.3,3.0,0.5,0.68 ± 0.05 nmol/cm^2,5.29 ± 0.48 nmol/cm^2,0.68 ± 0.05 nmol/cm^2,6.57 ± 1.00 nmol/cm^2,0.49 ± 0.49 nmol/cm^2,2.87 ± 1.66 nmol/cm^2,3.50 ± 0.48 nmol/cm^2,0.18±0.18 nmol/cm^2,0.62±0.13 nmol/cm^2,0.72±0.09 nmol/cm^2,"partitioning into the cubic lipid bilayer compared to kynurenine [1]: twice as high; partitioning into the cubic lipid bilayer compared to kynurenine ([1]; listed as tryptophan): approximately twice as high; Ratio Trp/Kyn at cathode cubic ([2]; from amounts in the cubic phase): 0.94 ± 0.04; Ratio Trp/Kyn at cathode total ([2]; from the total cumulative amount): 0.86 ± 0.05; Ratio (Trp/Kyn) Passive ([3]; pH 4.0, from normalized cumulative amounts): 1.81; cumulative amount by passive diffusion (QP) ([3]; pH 7.4, after 5 hours): 0.54±0.12 nmol/cm^2; cumulative amount by passive diffusion (QP) ([3]; pH 7.4, after the first hour): 0.30±0.04 nmol/cm^2; Ratio (Trp/Kyn) Passive ([3]; pH 7.4, from normalized cumulative amounts): 1.27; Ratio (Trp/Kyn) Passive ([3]; pH 9.0, from normalized cumulative amounts): 1.22 ± 0.19; Flux Passive ([3]; receptor pH 4.0, after 6 hours): 0.01 ± 0.01 nmol/(h · cm^2); Flux Passive ([3]; receptor pH 7.4, after 6 hours): 0.07 ± 0.03 nmol/(h · cm^2); Flux Passive ([3]; receptor pH 9.0, after 6 hours): 0.10 ± 0.03 nmol/(h · cm^2); contribution of endogenous Trp to the total cumulative amount of extracted Trp (at the cathode) ([4]; pig, 6 h, pH 7.4): approximately 6%; cumulative amount of extracted endogenous Trp to the anode ([4]; pig, 6 h, pH 7.4): 0.22±0.05 nmol/cm^2; cumulative amount of extracted endogenous Trp to the cathode ([4]; pig, 6 h, pH 7.4): 0.44±0.06 nmol/cm^2"

# From patent publication US20250325256A1, “LIPID PATCH” (SENSACH AB, priority 2021, published 2025)
